From patent US12152060B2, “Interleukin-2 variants and methods of uses thereof” (Cugene Inc, priority 2018, dated 2024)
“Also recorded” adds a separate entry of the source.

Experiments:
[1] = tested on: delayed-type hypersensitivity (DTH) mouse model; assay: KLH-induced delayed-type hypersensitivity (DTH) mouse model, ear thickness; assay type: in vivo
Method: The ability of Treg cells induced by IL-2 variants to suppress T cell antigen-driven inflammation in vivo was assessed in a model of delayed-type hypersensitivity (DTH). Female Balb/C mice (7-week old) were acclimated in house for 7 days and randomized into groups. Subcutaneous administration of vehicle (PBS), P-0511 at either 0.1 mg/kg or 0.3 mg/kg was initiated on day-2 and was given either once every 3 days (Q3D) for three injections or once every 5 days (Q5D) for two injections. Mice were then sensitized with a subcutaneous administration of 100 μg keyhole limpet hemocyanin (KLH) in 200 μl saline on day 0. For Q3D dosing, two more subcutaneous injections of PBS or P-0511 (0.1 or 0.3 mg/kg) were administered on days 1 and 4; for Q5D dosing, one additional s.c. injection of PBS, 0.1 or 0.3 mg/kg P-0511 was administered on day 3. Mice received an intradermal challenge of KLH (5 μg in 10 μl saline) in right ear on day 5. Right ear thickness was measured using a caliper on day 5 prior KLH challenge and daily from day 6 to day 8 corresponding to 24 h, 48h, and 72 h post KLH challenge. One group of mice also received 5 mg/kg daily i.p. treatment of dexamethasone from day 5 to day 8 as a positive control.
Kinetics of the DTH response using the change in ear thickness relative to baseline values (Δ ear thickness) at various times after KLH challenge was illustrated in FIG. 23.
In a separate study, dose-dependent response of P-0511 (0.1, 0.3 and 1 mg/kg, Q5D) on suppression of KLH-induced DTH was determined and compared with Benchmark-1 (0.3 mg/kg, Q5D).

[2] = tested on: STAT5 phosphorylation in CD4+ Treg cells (CD4+/Foxp3+/CD25high); assay: STAT5 phosphorylation in CD4+ Treg cells, human PBMC assay by FACS; assay type: cell-based; conditions: for pSTAT5 activity profile compared with benchmark molecules (in words): Treg and CD4+ Tconv cells; for window for selective activation of Treg cells over CD4+ Tconv cells (in words): pSTAT5, Treg versus Tconv
Excerpt: Single amino acid substitutions were introduced to IL-2 at positions corresponding to amino acids interacting with receptor subunit(s) β or γ or By. These substitutions were aimed to reduce IL-2 signaling capacity through the intermediate affinity IL-2Rβγ complex and confer signaling specificity from the high affinity IL-2Rαβγ. IL-2 variants containing single amino acid substitutions were examined for their ability to differentially stimulate STAT5 phosphorylation in CD4 positive Treg and Tconv cells. STAT5 is known to be involved in the downstream signaling cascade upon IL-2 binding to the transmembrane IL-2 receptors. The phosphorylation of STAT5 in defined lymphocyte subpopulations was measured using fresh human peripheral blood mononuclear cells (PBMC) and the forkhead transcription factor FOXP3 was used to identify the Treg population in FACS analysis.
Briefly, human PBMC were isolated by Ficoll-Hypaque centrifugation from the buffy coat of a healthy donor. PBMC were starved in serum-free MACS buffer at 4° C. for 1 hour. 2×10^5 PBMC were then treated with serial dilutions of test compounds for 30 min at 37° C. Cells were fixed and permeabilized with Foxp3/Transcription Factor Staining Buffer Set (EBIO) by incubating with 1× Foxp3 fixation/permeabilization working solution for 30 minutes and washing with 1× permeabilization buffer. Cells were additionally fixed with Cytofix buffer and permeabilized with Perm Buffer III (BD Biosciences) and then washed. After blocking Fc receptors by adding human TruStain™ FcX (1:50 dilution), cells were stained with a mixture of anti-CD25-PE, anti-FOXP3-APC, anti-pSTAT5-FITC, and anti-CD4-PerCP-Cy5.5 antibodies at concentrations recommended by the manufacturer for 45 minutes at room temperature. Cells were collected by centrifugation, washed, resuspended in FACS buffer, and analyzed by flow cytometry. The flow cytometry data was gated into CD4+/Foxp3+/CD25^high and CD4+/Foxp3−/CD25^low groups for the Treg and CD4 conventional T cell subsets, respectively. Data are expressed as a percent of pStat5 positive cells in gated population.

[3] = tested on: regulatory T cells (CD4+CD25+FoxP3+ T cells), effector T cells and NK cells; assay: Treg versus effector T and NK cell proliferation and expansion in mice after a single subcutaneous injection; assay type: in vivo, mouse; conditions: 0.3 mg/kg s.c. single dose, C57/BL6 mice; for Treg cell proliferation and expansion (Ki67 positive Treg, % Treg over CD4+ T cells or lymphocytes): days 3, 5, 7
Method: IL-2 variant Fc fusion proteins were administered to mice and their ability to preferentially proliferate and expand regulatory T cells (CD4+CD25+FoxP3+ T cells) over effector T cells and NK cells were determined in vivo.
Female C57/BL6 mice (7-week old) were received from Charles River Laboratory and acclimated in house for at least 7 days before the study. Vehicle (PBS), 0.3 mg/kg of each test compounds, or IL-2 benchmark compounds were subcutaneously administered to mice on day 0. Peripheral blood samples were collected into heparin-treated tubes on days 3, 5 and 7 post-treatment. Each group contained 6 mice and baseline blood was collected 2 days prior to the treatment (day-2). After red blood cell lysis, total viable mononuclear blood cells were counted by trypan blue dead cell exclusion method and proceeded to intracellular staining for immune cell phenotype and Ki67 proliferation markers using flow cytometric analysis. Cells were stained separately with two panels of antibodies as listed: 1) anti-mouse Foxp3-FITC, Ki67-PE, anti-mouse CD25-APC and anti-mouse CD4-Percpcy5.5 (1:50 dilution) for CD4+T-regulatory cells (Treg); 2) anti-mouse CD3-FITC, Ki67-PE, anti-mouse CD335-APC and anti-mouse CD8-Percpcy5.5 (1:50 dilution) for CD8+T and NK cells.

[4] = tested on: STAT5 phosphorylation in CD4+/Foxp3+/CD25+ Treg, CD4+/Foxp3-/CD25+ CD4 effector and CD4+/Foxp3-/CD25- CD4 naive T cell subsets; assay: STAT5 phosphorylation in three CD4+ T cell subsets, human PBMC; assay type: cell-based; conditions: FIG. 9
Method: After human PBMC Cells were treated with serial dilutions of test compounds, fixed and permeabilized, washed, and stained with a mixture of anti-CD25-PE, anti-FOXP3-APC, anti-pSTAT5-FITC, and anti-CD4-PerCP-Cy5.5 antibodies, the flow cytometry analysis was gated into CD4+/Foxp3+/CD25+, CD4+/Foxp3−/CD25+, CD4+/Foxp3−/CD25− groups for the Treg, CD4 effector, and CD4 naive T cell subsets, respectively. Data are expressed as a percent of pSTAT5 positive cells in gated population and illustrated in FIG. 9.

Treg cells in blood = assay: Pharmacodynamics study in mice following repeated administration (Q3D); assay type: in vivo, mouse; conditions: 0.3 mg/kg s.c. Q3D x3; compared to P-0531 and Benchmark-1
Method: Female Balb/C mice (7-week old) were acclimated in house for 5-7 days before the study. Vehicle (PBS), 0.3 mg/kg of P-0511, P-0512, P-0531, or Benchmark-1 compound were subcutaneously administered to mice (n=5/group) on days 0, 3, and 6. On days 3 and 9, three days after the first injection and multiple (3) injections, respectively, peripheral blood was collected. Based on earlier in vivo experiments, Treg cell activation, proliferation, and expansion were expected to peak on day 3, and thus three days post injection was selected for data collection and analysis. Changes in blood lymphocyte activation, proliferation, and expansion were measured by flow cytometry. P-0531 is the S125I equivalent of the wild type IL-2 fusion protein. The Benchmark-1 contains V91K mutation.

C[C@@H]1C[C@H]2[C@@H]3CCC4=CC(=O)C=C[C@]4(C)[C@@]3(F)[C@@H](O)C[C@]2(C)[C@@]1(O)C(=O)CO [dexamethasone, reference compound]
inhibition of KLH-induced inflammatory response (ear swelling) ([1]; 5 mg/kg daily i.p., 4 consecutive doses, 72 hours after KLH challenge): ~85%

P-0449: Fc fusion protein of IL-2 variant L19S/Q126E; SEQ ID NO: 170
pSTAT5 activity profile compared with benchmark molecules (in words) [2]: on par with Benchmark-3

P-0372: Fc fusion protein of IL-2 variant L19Y; SEQ ID NO: 79
window for selective activation of Treg cells over CD4+ Tconv cells (in words) [2]: modestly improved selective window

P-0512: Fc fusion protein of IL-2 variant L19H/S125I/Q126K; SEQ ID NO: 199
Ki67 stimulation on CD8 T cells and NK cells [3]: mild Ki67 stimulation | expansion of CD4+ Tconv cells, CD8 T cells or NK cells [3]: No significant expansion | Treg cell proliferation and expansion (Ki67 positive Treg, % Treg over CD4+ T cells or lymphocytes) [3]: stronger in vivo efficacy | pSTAT5 potency and selectivity in Treg, Teff and naive CD4 T cell subsets (in words) [4]: comparable activity profile to Benchmark-1 | Treg cell counts, fold changes relative to PBS and Treg/Tconv ratio (Treg cells in blood): superior capabilities to sustain Treg pool

P-0448: Fc fusion protein of IL-2 variant L19Q/Q126E; SEQ ID NO: 169
pSTAT5 activity profile compared with benchmark molecules (in words) [2]: on par with Benchmark-3

P-0363: Fc fusion protein of IL-2 variant D20T; SEQ ID NO: 72
window for selective activation of Treg cells over CD4+ Tconv cells (in words) [2]: some or significant biased selective window

Benchmark-1: benchmark Fc-IL-2 variant fusion protein containing V91K mutation; SEQ ID NO: 191 [reference compound]
Ki67 stimulation on CD8 T cells and NK cells [3]: strong Ki67 stimulation | Treg cell proliferation and expansion (Ki67 positive Treg, % Treg over CD4+ T cells or lymphocytes) [3]: highest potency | inhibition of ear inflammation (KLH-induced DTH), separate study ([1]; 0.3 mg/kg, Q5D): mild inhibition of ear swelling

P-0373: Fc fusion protein of IL-2 variant L19N; SEQ ID NO: 80
window for selective activation of Treg cells over CD4+ Tconv cells (in words) [2]: wide window for selective targeting of Treg subset; also recorded: some or significant biased selective window

P-0514: Fc fusion protein of IL-2 variant L19Q/S125I/Q126E; SEQ ID NO: 201
expansion of CD4+ Tconv cells, CD8 T cells or NK cells [3]: No significant expansion | Treg cell proliferation and expansion (Ki67 positive Treg, % Treg over CD4+ T cells or lymphocytes) [3]: stronger in vivo efficacy

P-0424: Fc fusion protein of IL-2 variant L19H; SEQ ID NO: 148
window for selective activation of Treg cells over CD4+ Tconv cells (in words) [2]: selective activation of Treg cells over CD4+ Tconv cells

P-0425: Fc fusion protein of IL-2 variant L19D; SEQ ID NO: 149
window for selective activation of Treg cells over CD4+ Tconv cells (in words) [2]: wide window for selective targeting of Treg subset

P-0531: Fc fusion protein of IL-2 variant S125I, the S125I equivalent of wild type P-0250; SEQ ID NO: 162
window for selective activation of Treg cells over CD4+ Tconv cells (in words) [2]: without altering Treg selectivity

P-0303: Fc fusion protein of IL-2 variant Q126E; SEQ ID NO: 88
window for selective activation of Treg cells over CD4+ Tconv cells (in words) [2]: modestly improved selective window

Benchmark-3: benchmark Fc-IL-2 variant fusion protein containing N88D; SEQ ID NO: 192 [reference compound]
Ki67 stimulation on CD8 T cells and NK cells [3]: low effects | Treg cell proliferation and expansion (Ki67 positive Treg, % Treg over CD4+ T cells or lymphocytes) [3]: not efficacious

P-0491: Fc fusion protein of IL-2 variant L19H/S125I; SEQ ID NO: 185
window for selective activation of Treg cells over CD4+ Tconv cells (in words) [2]: without altering Treg selectivity

P-0447: Fc fusion protein of IL-2 variant L19H/Q126E; SEQ ID NO: 168
pSTAT5 activity profile compared with benchmark molecules (in words) [2]: on par with Benchmark-3
